According to patent US8507509B2, “Saturated and insaturated bi- or tricyclic aryloxyacetamine derivatives and their use as fungicides” (Syngenta Crop Protection LLC, priority 2007, dated 2013):

Columns and labels:
[1] = test system: Phytophthora infestans; experiment: whole plant or invertebrate; assay type: in vivo; details: in Solanum lycopersicum, foliar, 96 h, read-out: control of fungal infection, Phytophthora infestans
[2] = test system: Pythium ultimum; experiment: Pythium ultimum (Damping off), liquid culture growth inhibition in potato dextrose broth; assay type: cell-based; details: Globisporangium ultimum; 20 ppm; potato dextrose broth, 24° C.; inhibition of growth determined photometrically after 48 hours; read-out: control of fungal infection, Pythium ultimum
[3] = test system: Plasmopara viticola; experiment: Plasmopara viticola (downy mildew of grapevine), grapevine leaf disk assay, preventive; assay type: in vivo; details: foliar, 168 h, 200 ppm, grapevine leaf disks, assessed seven days after inoculation, read-out: control of fungal infection, Plasmopara viticola
[4] = test system: Septoria tritici; experiment: Septoria tritici (leaf blotch), liquid culture growth inhibition in nutrient broth; assay type: cell-based; details: Zymoseptoria tritici; 200 ppm; PDB broth, 24 C; inhibition of growth determined photometrically after 72 hrs; read-out: control of fungal infection, Septoria tritici
[5] = test system: Erysiphe graminis f.sp. tritici; experiment: Erysiphe graminis f.sp. tritici (wheat powdery mildew), wheat leaf segment assay, preventive; assay type: in vivo; details: Blumeria graminis, foliar, 96 h; 200 ppm; wheat leaf segments; assessed four days after inoculation; read-out: control of fungal infection, Etysiphe graminis f.sp. tritici

CCC(Oc1ccc2ncc(Br)cc2c1)C(=O)NC(C)(C)C=NO (centres unmarked) [Compound No. 150, 2-(3-Bromo-quinolin-6-yloxy)-N-(2-hydroxyimino-1,1-dimethyl-ethyl)-butyramide]
pest or weed control at 200 ppm [1]: ≥ 60% | inhibition of growth at 20 ppm [2]: ≥ 60%

CSC(Oc1cc(C)c2ncc(I)cc2c1)C(=O)NC(C)(C)CC=NOCc1ccccc1 (centres unmarked) [Compound No. 47, N-(3-Benzyloxyimino-1,1-dimethyl-propyl)-2-(3-iodo-8-methyl-quinolin-6-yloxy)-2-methylsulfanyl-acetamide]
pest or weed control at 200 ppm [3]: ≥ 60% | inhibition of growth at 200 ppm [4]: ≥ 60%

CSC(Oc1cc(C)c2ncc(Br)cc2c1)C(=O)NC(C)(C)C=NOCC(C)C (centres unmarked) [Compound No. 25, 2-(3-Bromo-8-methyl-quinolin-6-yloxy)-N-(2-isobutoxyimino-1,1-dimethyl-ethyl)-2-methylsulfanyl-acetamide]
inhibition of growth at 200 ppm [4]: ≥ 60%

CSC(Oc1ccc2ncc(Br)cc2c1)C(=O)NC(C)(C)C=NOCc1ccc(Cl)cc1 (centres unmarked) [Compound No. 9, 2-(3-Bromo-quinolin-6-yloxy)-N-[2-(4-chloro-benzyloxyimino)-1,1-dimethyl-ethyl]-2-methylsulfanyl-acetamide]
inhibition of growth at 200 ppm [4]: ≥ 60%

CSC(Oc1cc(C)c2ncc(Br)cc2c1)C(=O)NC(C)(C)C=NOCc1ccccc1 (centres unmarked) [Compound No. 110, N-(2-Benzyloxyimino-1,1-dimethyl-ethyl)-2-(3-bromo-8-methyl-quinolin-6-yloxy)-2-methylsulfanyl-acetamide]
inhibition of growth at 200 ppm [4]: ≥ 60%

CON=CC(C)(C)NC(=O)C(Cc1cc(C)c2ccsc2c1)SC (centres unmarked) [Compound No. 82, N-(2-Methoxyimino-1,1-dimethyl-ethyl)-3-(4-methyl-benzo[b]thiophen-6-yl)-2-methylsulfanyl-propionamide]
inhibition of growth at 20 ppm [2]: ≥ 60% | pest or weed control at 200 ppm [3]: ≥ 60% | inhibition of growth at 200 ppm [4]: ≥ 60%

CSC(Oc1ccc2ncc(Br)cc2c1)C(=O)NC(C)(C)C=NOCC(C)C (centres unmarked) [Compound No. 18, 2-(3-Bromo-quinolin-6-yloxy)-N-(2-iso-butoxyimino-1,1-dimethyl-ethyl)-2-methylsulfanyl-acetamide]
pest or weed control at 200 ppm [3]: ≥ 60% | inhibition of growth at 200 ppm [4]: ≥ 60%

CCON=CC(C)(C)NC(=O)C(Oc1cc(Cl)c2ncc(Br)cc2c1)SC (centres unmarked) [Compound No. 36, 2-(3-Bromo-8-chloro-quinolin-6-yloxy)-N-(2-ethoxyimino-1,1-dimethyl-ethyl)-2-methylsulfanyl-acetamide]
pest or weed control at 200 ppm [3]: ≥ 60% | pest or weed control at 200 ppm [5]: ≥ 60% | inhibition of growth at 200 ppm [4]: ≥ 60%

C#Cc1cnc2c(C)cc(OC(CC)C(=O)NC(C)(C)C=NOCC(C)C)cc2c1 (centres unmarked) [Compound No. 136, 2-(3-Ethynyl-8-methyl-quinolin-6-yloxy)-N-(2-isobutoxyimino-1,1-dimethyl-ethyl)-butyramide]
inhibition of growth at 200 ppm [4]: ≥ 60%

CSC(Oc1cc(C)c2ncc(Br)cc2c1)C(=O)NC(C)(C)C=NOC(C)(C)C (centres unmarked) [Compound No. 22, 2-(3-Bromo-8-methyl-quinolin-6-yloxy)-N-(2-tert-butoxyimino-1,1-dimethyl-ethyl)-2-methylsulfanyl-acetamide]
inhibition of growth at 200 ppm [4]: ≥ 60%

CCCCON=CC(C)(C)NC(=O)C(Oc1cc(C)c2ncc(Br)cc2c1)SC (centres unmarked) [Compound No. 30, 2-(3-Bromo-8-methyl-quinolin-6-yloxy)-N-(2-butoxyimino-1,1-dimethyl-ethyl)-2-methylsulfanyl-acetamide]
inhibition of growth at 200 ppm [4]: ≥ 60%

CON=C(C)CC(C)(C)NC(=O)C(Oc1ccc2ncc(Br)cc2c1)SC (centres unmarked) [Compound No. 104, 2-(3-Bromo-quinolin-6-yloxy)-N-(3-methoxyimino-1,1-dimethyl-butyl)-2-methylsulfanyl-acetamide]
pest or weed control at 200 ppm [1]: ≥ 60% | pest or weed control at 200 ppm [3]: ≥ 60% | pest or weed control at 200 ppm [5]: ≥ 60%

CCOC(=O)C(C)(C)O/N=C/C(C)(C)NC(=O)C(Oc1cc(C)c2ncc(Br)cc2c1)SC (centres unmarked) [Compound No. 24, 2-[2-[2-(3-Bromo-8-methyl-quinolin-6-yloxy)-2-methylsulfanyl-acetylamino]-2-methyl-prop-(E)-ylideneaminooxy]-2-methyl-propionic acid ethyl ester]
inhibition of growth at 200 ppm [4]: ≥ 60%

CCON=CC(C)(C)NC(=O)C(CC)Oc1ccc2ncc(I)cc2c1 (centres unmarked) [Compound No. 3, N-(2-Ethoxyimino-1,1-dimethyl-ethyl)-2-(3-iodo-quinolin-6-yloxy)-butyramide]
pest or weed control at 200 ppm [1]: ≥ 60% | pest or weed control at 200 ppm [3]: ≥ 60% | pest or weed control at 200 ppm [5]: ≥ 60% | inhibition of growth at 200 ppm [4]: ≥ 60%

CSC(Oc1ccc2ncc(Br)cc2c1)C(=O)NC(C)(C)C=NOC(C)(C)C (centres unmarked) [Compound No. 12, 2-(3-Bromo-quinolin-6-yloxy)-N-(2-tert-butoxyimino-1,1-dimethyl-ethyl)-2-methylsulfanyl-acetamide]
inhibition of growth at 20 ppm [2]: ≥ 60% | inhibition of growth at 200 ppm [4]: ≥ 60%

CCON=C(Cc1ccsc1)C(C)(C)NC(=O)C(Oc1ccc2ncc(Br)cc2c1)SC (centres unmarked) [Compound No. 125, 2-(3-Bromo-quinolin-6-yloxy)-N-{2-[(E or Z)-ethoxyimino]-1,1-dimethyl-3-thiophen-3-yl-propyl}-2-methylsulfanyl-acetamide]
pest or weed control at 200 ppm [3]: ≥ 60% | inhibition of growth at 200 ppm [4]: ≥ 60%

CON=C(Cc1ccccn1)C(C)(C)NC(=O)C(Oc1ccc2ncc(Br)cc2c1)SC (centres unmarked) [Compound No. 127, 2-(3-Bromo-quinolin-6-yloxy)-N-{2-[(E or Z)-methoxyimino]-1,1-dimethyl-3-pyridin-2-yl-propyl}-2-methylsulfanyl-acetamide]
inhibition of growth at 20 ppm [2]: ≥ 60% | pest or weed control at 200 ppm [3]: ≥ 60% | inhibition of growth at 200 ppm [4]: ≥ 60%

CON=CC(C)(C)NC(=O)C(Oc1ccc2ncc(C#C[Si](C)(C)C)cc2c1)SC (centres unmarked) [Compound No. 37, N-(2-methoxyimino-1,1-dimethyl-ethyl)-2-methylsulfanyl-2-(3-trimethylsilanylethynyl-quinolin-6-yloxy)-acetamide]
pest or weed control at 200 ppm [1]: ≥ 60% | pest or weed control at 200 ppm [3]: ≥ 60% | pest or weed control at 200 ppm [5]: ≥ 60% | inhibition of growth at 200 ppm [4]: ≥ 60%

C=CCON=CC(C)(C)NC(=O)C(CC)Oc1cc(C)c2ncc(I)cc2c1 (centres unmarked) [Compound No. 7, N-(2-allyloxyimino-1,1-dimethyl-ethyl)-2-(3-iodo-8-methyl-quinolin-6-yloxy)-butyramide]
pest or weed control at 200 ppm [5]: ≥ 60% | inhibition of growth at 200 ppm [4]: ≥ 60%

C=CCON=C(Cc1ccsc1)C(C)(C)NC(=O)C(Oc1ccc2ncc(Br)cc2c1)SC (centres unmarked) [Compound No. 126, N-{2-[(E or Z)-Allyloxyimino]-1,1-dimethyl-3-thiophen-3-yl-propyl}-2-(3-bromo-quinolin-6-yloxy)-2-methylsulfanyl-acetamide]
pest or weed control at 200 ppm [3]: ≥ 60% | inhibition of growth at 200 ppm [4]: ≥ 60%

CCON=C(Cc1ccccn1)C(C)(C)NC(=O)C(Oc1ccc2ncc(Br)cc2c1)SC (centres unmarked) [Compound No. 128, 2-(3-Bromo-quinolin-6-yloxy)-N-{2-[(E or Z)-ethoxyimino]-1,1-dimethyl-3-pyridin-2-yl-propyl}-2-methylsulfanyl-acetamide]
inhibition of growth at 20 ppm [2]: ≥ 60% | inhibition of growth at 200 ppm [4]: ≥ 60%

CON=CCC(C)(C)NC(=O)C(Oc1ccc2ncc(I)cc2c1)SC (centres unmarked) [Compound No. 92, 2-(3-iodo-quinolin-6-yloxy)-N-(3-methoxyimino-1,1-dimethyl-propyl)-2-methylsulfanyl-acetamide]
inhibition of growth at 20 ppm [2]: ≥ 60%

C=CCON=CC(C)(C)NC(=O)C(Oc1cc(C)c2ncc(Br)cc2c1)SC (centres unmarked) [Compound No. 28, N-(2-Allyloxyimino-1,1-dimethyl-ethyl)-2-(3-bromo-8-methyl-quinolin-6-yloxy)-2-methylsulfanyl-acetamide]
pest or weed control at 200 ppm [3]: ≥ 60% | inhibition of growth at 200 ppm [4]: ≥ 60%

C#Cc1cnc2c(C)cc(OC(CC)C(=O)NC(C)(C)C=NOC(C)(C)C)cc2c1 (centres unmarked) [Compound No. 137, N-(2-tert-Butoxyimino-1,1-dimethyl-ethyl)-2-(3-ethynyl-8-methyl-quinolin-6-yloxy)-butyramide]
pest or weed control at 200 ppm [5]: ≥ 60% | inhibition of growth at 200 ppm [4]: ≥ 60%

CSC(Oc1ccc2ncc(Br)cc2c1)C(=O)NC(C)(C)C=NOCc1ccccc1 (centres unmarked) [Compound No. 109, N-(2-Benzyloxyimino-1,1-dimethyl-ethyl)-2-(3-bromo-quinolin-6-yloxy)-2-methylsulfanyl-acetamide]
pest or weed control at 200 ppm [1]: ≥ 60% | pest or weed control at 200 ppm [3]: ≥ 60% | inhibition of growth at 200 ppm [4]: ≥ 60%

CCCCON=CC(C)(C)NC(=O)C(Oc1ccc2ncc(Br)cc2c1)SC (centres unmarked) [Compound No. 14, 2-(3-Bromo-quinolin-6-yloxy)-N-(2-butoxyimino-1,1-dimethyl-ethyl)-2-methylsulfanyl-acetamide]
pest or weed control at 200 ppm [1]: ≥ 60% | inhibition of growth at 20 ppm [2]: ≥ 60% | pest or weed control at 200 ppm [3]: ≥ 60%

CCc1cc(OC(SC)C(=O)NC(C)(C)C=NOC)cc2cc(Br)cnc12 (centres unmarked) [Compound No. 133, 2-(3-Bromo-8-ethyl-quinolin-6-yloxy)-N-(2-methoxyimino-1,1-dimethyl-ethyl)-2-methylsulfanyl-acetamide]
pest or weed control at 200 ppm [3]: ≥ 60% | inhibition of growth at 200 ppm [4]: ≥ 60%

CSC(Oc1cc(C)c2ncc(I)cc2c1)C(=O)NC(C)(C)CC=NOC(C)(C)C (centres unmarked) [Compound No. 43, N-(3-tert-Butoxyimino-1,1-dimethyl-propyl)-2-(3-iodo-8-methyl-quinolin-6-yloxy)-2-methylsulfanyl-acetamide]
inhibition of growth at 200 ppm [4]: ≥ 60%

CON=CC(C)(C)NC(=O)C(Oc1cc(Cl)c2ncc(Br)cc2c1)SC (centres unmarked) [Compound No. 35, 2-(3-Bromo-8-chloro-quinolin-6-yloxy)-N-(2-methoxyimino-1,1-dimethyl-ethyl)-2-methylsulfanyl-acetamide]
inhibition of growth at 20 ppm [2]: ≥ 60% | inhibition of growth at 200 ppm [4]: ≥ 60%
